The record followed here is patent publication US20250082657A1, “CONJUGATES OF CHEMOTHERAPY AGENTS AND TISSUE-BINDING SMALL MOLECULES, COMPOSITIONS AND METHODS THEREOF” (CANWELL BIOTECH LIMITED, priority 2022, published 2025).

Where two headings read alike, the source gives them in different places. Bounds are passed on as bounds.

One data set relates to MC38. Briefly: Cellular IC50 in MC38 tumor cell line (CellTiter-Glo). Type of data set: cell-based. The note with it: 72 h incubation. The procedure: (§1) The cellular inhibition was determined in three assays: U87MG, A549 and MC38. Cells were recovered and cultured in appropriate medium supplemented with 10% fetal bovine serum and 100 U/mL penicillin G sodium, and maintained in cell incubators (37° C., 5% CO2). Before testing, cells in culture dishes were rinsed with Phosphate Buffered Solution, detached with Trypsin. Dilute and adjust the cell number with the culture medium, add the cell suspension to the 96 well cell plate. Cells were maintained in incubators overnight. In T0 control plate, cells were added with 100 μL CellTiter-Glo reagent, balance at room temperature for 10 minutes, and read the chemiluminescence value with envision.
(§2) In the testing plate, compounds were dissolved with corresponding solvent and diluted gradiently. Diluted compound solution was added to a 96 well plate with cells. After incubation of 72 h, cells were added with 100 μL CellTiter-Glo reagent, balanced at room temperature for 10 minutes, and read the chemiluminescence value with envision. IC50 was calculated using the GraphPad Prism software package (Prism 6 for Windows, Version 6.0, GraphPad Software Inc., San Diego, CA).

The test system of a further data set is U87MG. Briefly: Cellular IC50 in U87MG tumor cell line (CellTiter-Glo). In kind it is cell-based. The note with it: U87MG cells, 72 h incubation. The procedure: as §1, §2
In general terms: In ATP-based viability assays light output follows the ATP content of the culture.

In the next data set the test system is A549. Briefly: Cellular IC50 in A549 tumor cell line (CellTiter-Glo). Type of data set: cell-based. The note with it: A549 cells, 72 h incubation. As for the experimental part:
as §1, §2

A short description of the next data set: physchem. The note with it: buffer, pH 7.4.
For data set [1] the following is noted: male, CD-1, mouse, in vivo.
Experimental: (§3) Pharmacokinetic parameters were determined in male CD-1 mice (Shanghai Jihui Laboratory Animal Care Co., Ltd., 6-8 weeks old). Animals were maintained under a 12 hr light/dark cycle. Animals had free access to food and water during the study.
(§4) For intravenous, compounds were formulated as a solution (in 5% DMSO+10% Solutol HS15+85% (20% HP-β-CD in water)) in 5 mL/kg dosing volume and administered via tail vein. For subcutaneous, compounds were formulated as a solution (in 5% DMSO+10% Solutol HS15+85% (20% HP-β-CD in water)) in 10 mL/kg dosing volume or (in 0.5% MC+1% Pluronic F68 in water) in 50 μL/mouse dosing volume and administered via subcutaneous puncture.
(§5) Semi-serial blood samples (about 110 μL) were taken from animal at 0.083, 0.25, 0.5, 1, 2, 4, 8 and 24 hr for IV group and 0.5, 2, 4, 8, 24, 48 and 96 hr for SC group. Samples were held on ice for no longer than 15 minutes before centrifugation (2000 g, 5 min, 4° C.) within 15 minutes post sampling. Plasma was snap frozen in dry ice and then transferred into −70° C. freezer for long term storage until LC-MS/MS analysis.
(§6) Tissue collection for SC group at 0.5, 2, 4, 8, 24, 48 and 96 hr. After animals were anesthetized and exsanguinated, tissue samples (including muscle and skin) were collected and weighted, and then snap frozen in liquid nitrogen and further stored at −70° C. for long term storage until LC-MS/MS analysis. Tissue samples were homogenized under freezing conditions.
(§7) PK parameters were generated from LC-MS/MS data using Phoenix WinNonlin 8.2 software.
Data set [2] in a line: Chemical stability in PBS (pH 7.4). The note with it: PBS buffer.
Experimental: (§8) Test compounds spiking solution: 1 mM test compounds spiking solution A: Add 10 μL of 10 mM test compounds stock solution to 90 μL DMSO. • 2. Add 396 μL of buffer into the tubes designated for different time points. Pre-warm the samples at 37° C. for 10 min. • 3. Add 4 μL of spiking solution A into the wells designated as 0 min (or 15, 45, 90, 120 min) containing 396 μL of buffer, then start timing count down. • 4. At each time point, add 1200 μL ACN containing IS into the tubes. • 5. Samples are centrifuged at 10,000 rpm for 5 min, then 100 μL of supernatant are ready for LC-MS/MS analysis.
The conditions of data set [3]: buffer.
Experimental: as §8
A further data set can be described thus: in vivo. The note with it: male, CD-1, mouse, sc, 5 mg/kg.
A short description of data set [4]: Pharmacokinetics in male CD-1 mice (plasma and tissue, LC-MS/MS). The note with it: CD-1, mouse.
Experimental: as §3, §4, §5, §6, §7
The mark [5] stands for this setting: Mus musculus, MC-38, MC38 cells.

Experimental for in vivo: as §3, §4, §5, §6, §7
Experimental for physchem: as §8

For the molecule `CCc1c2c(nc3ccc(O)cc13)-c1cc3c(c(=O)n1C2)COC(=O)[C@]3(O)CC` [Compound 1-1, SN-38, reference compound], the 50% inhibitory concentration (IC50) – broadly, the point on the concentration scale where inhibition reaches its midpoint – with MC38 (MC38 cells) was found to be 21.2 nM; with U87MG it was 13.6 nM; in the data set with A549, 99.5 nM.
As for `CCc1c2c(nc3ccc(OC(=O)CCCc4ccc(I)cc4)cc13)-c1cc3c(c(=O)n1C2)COC(=O)[C@]3(O)CC` [Compound 1], in the data set “physchem”, the half-life (commonly the time in which the quantity being followed falls by half) at 10 µM worked out at 1180 min. Besides, in data set [1] (3 mg/kg), the Tissue/Plasma ratio turned out to be 171.8 and the “T½” value is listed as 10.3 h.
`CCc1c2c(nc3ccc(OC(=O)C(C)CCc4ccc(I)cc4)cc13)-c1cc3c(c(=O)n1C2)COC(=O)[C@]3(O)CC` (stereo partly shown) [Compound 2] returned a half-life at 10 µM in the data set “physchem” of 1390 min.
Regarding `CCc1c2c(nc3ccc(OC(=O)NCCc4ccc(I)cc4)cc13)-c1cc3c(c(=O)n1C2)COC(=O)[C@]3(O)CC` [Compound 3, (S)-4,11-diethyl-4-hydroxy-3,14-dioxo-3,4,12,14-tetrahydro-1H-pyrano [3′,4′:6,7]indolizino[1,2-b]quinolin-9-yl(4-iodophenethyl)carbamate], in [2], the half-life at 10 µM stood at 51 min.
On to `CCc1c2c(nc3ccc(OC(=O)N(C)CCc4ccc(I)cc4)cc13)-c1cc3c(c(=O)n1C2)COC(=O)[C@]3(O)CC` [Compound 4, (S)-4,11-diethyl-4-hydroxy-3,14-dioxo-3,4,12,14-tetrahydro-1H-pyrano[3′,4′:6,7]indolizino[1,2-b]quinolin-9-yl(4-iodophenethyl)(methyl)carbamate], for which the half-life at 10 µM in data set [2] worked out at 215 min.
For `CCc1c2c(nc3ccc(OC(=O)[C@@H](C)c4ccc(CC(C)C)cc4)cc13)-c1cc3c(c(=O)n1C2)COC(=O)[C@]3(O)CC` [Compound 8, (S)-4,11-diethyl-4-hydroxy-3,14-dioxo-3,4,12,14-tetrahydro-1H-pyrano [3′,4′:6,7]indolizino[1,2-b]quinolin-9-yl(S)-2-(4-isobutylphenyl)propanoate], the IC50 in the data set with MC38 (setting [5]) was 22.7 nM; in the data set with U87MG (Homo sapiens, U-87 MG), 13.4 nM; in the data set on A549 (Homo sapiens), 208 nM. In data set [3], the “Stability (PBS, pH 7.4) T½ (min)” value is listed as “∞”. The “T½” value in data set [1] (sc, 5 mg/kg) is over 96 h. Moreover, the AUC(0-t) (as a rule, the area under the concentration-time curve up to a stated or last time point) in the data set “in vivo” amounted to 11800 µg·h/mL. Also, the half-life in the data set “in vivo” was 2650 min.
Take `CC(C)Cc1ccc([C@H](C)C(=O)O)cc1` [Compound 8-1]: the 50% inhibitory concentration (IC50) in the data set on MC38 (setting [5]) was over 10000 nM.
Take `CC(C)C[C@H](NC(=O)[C@H](Cc1ccccc1)NC(=O)c1cnccn1)B(O)O` [Compound 9-7, Valcade, reference compound]: the half-maximal inhibitory concentration (IC50) with MC38 (setting [5]) is 16.3 nM; in the data set with U87MG (Homo sapiens, U-87 MG), 6.89 nM; in the data set with A549 (Homo sapiens) it was 9.36 nM.
Regarding `CC(C)Cc1ccc([C@H](C)C(=O)NCCCC[N+]23CC(=O)O[B-]2([C@H](CC(C)C)NC(=O)[C@H](Cc2ccccc2)NC(=O)c2cnccn2)OC(=O)C3)cc1` (stereo partly drawn) [Compound 16, N-((S)-1-(((R)-1-(6-(4-((S)-2-(4-isobutylphenyl)propanamido)butyl)-4,8-dioxo-1,3,6,2-dioxazaborocan-2-yl)-3-methylbutyl)amino)-1-oxo-3-phenylpropan-2-yl)pyrazine-2-carboxamide], the half-life in [4] (in vivo, sc, 1 mg/kg) is 3.88 days. The AUC(0-t) in data set [4] (plasma, sc, 1 mg/kg) stood at 165 ng·h/mL; in data set [4] (tissue (muscle or skin, not specified), sc, 1 mg/kg), 60300 ng·h/mL. In addition, the Kp (in general, tissue or fluid exposure divided by exposure in the circulation) in [4] (tissue (muscle or skin, not specified) / plasma, subcutaneous, 1 mg/kg) worked out at 365. Moreover, the IC50 in the data set with MC38 (setting [5]) was 15.9 nM; in the data set on U87MG (Homo sapiens, U-87 MG) it was 7.27 nM; with A549 (Homo sapiens), 10.7 nM.
As for `O=C(CCCc1ccc(I)cc1)OCn1cc(F)c(=O)[nH]c1=O` [Compound 28, (5-fluoro-2,4-dioxo-3,4-dihydropyrimidin-1(2H)-yl)methyl 4-(4-iodophenyl) butanoate], the half-life at 10 µM in data set [2] amounted to 504 min. In addition, the exposure AUC(0-t) in [4] (tissue (muscle or skin, not specified which), sc, 10 mg/kg) was 37600 ng·h/mL. Also, in [4] (tissue (muscle or skin, not specified which), subcutaneous, 10 mg/kg), the half-life was 0.471 days.
`CC(=O)O[C@@]12CO[C@@H]1C[C@H](O)[C@@]1(C)C(=O)[C@H](O)C3=C(C)[C@@H](OC(=O)[C@H](OC(=O)CCCc4ccc(I)cc4)[C@@H](NC(=O)OC(C)(C)C)c4ccccc4)C[C@@](O)([C@@H](OC(=O)c4ccccc4)[C@H]21)C3(C)C` [Compound 30, (2aR,4S,4aS,6R,9S,11 S,12S,12aR,12bS)-12b-acetoxy-9-(((2R,3S)-3-((tert-butoxycarbonyl)amino)-2-((4-(4-iodophenyl)butanoyl)oxy)-3-phenylpropanoyl)oxy)-4,6,11-trihydroxy-4a,8,13,13-tetramethyl-5-oxo-2a,3,4,4a,5,6,9,10,11,12,12a,12b-dodecahydro-1H-7,11-methanocyclodeca[3,4]benzo[1,2-b]oxet-12-yl benzoate] gave a half-life in “physchem” of 806 min.
